Measured values published in ChEMBL document CHEMBL3639296, “Pyrazolopyrimidine compounds as kinase inhibitors” (2015).
pIC50: −log10 of the molar value.

target: Tyrosine-protein kinase BTK (Homo sapiens, UniProt Q06187); experiment: Caliper-Based Kinase Assay: A Caliper-based kinase assay (Caliper Life Sciences, Hopkinton, Mass.) was used to measure inhibition of Btk kinase activity of a compound of the present disclosure. […] The reaction was then terminated with EDTA, final concentration 20 mM and the phosphorylated reaction product was quantified on a Caliper Desktop Profiler (Caliper LabChip 3000).
Sequence (Q06187 whole entry): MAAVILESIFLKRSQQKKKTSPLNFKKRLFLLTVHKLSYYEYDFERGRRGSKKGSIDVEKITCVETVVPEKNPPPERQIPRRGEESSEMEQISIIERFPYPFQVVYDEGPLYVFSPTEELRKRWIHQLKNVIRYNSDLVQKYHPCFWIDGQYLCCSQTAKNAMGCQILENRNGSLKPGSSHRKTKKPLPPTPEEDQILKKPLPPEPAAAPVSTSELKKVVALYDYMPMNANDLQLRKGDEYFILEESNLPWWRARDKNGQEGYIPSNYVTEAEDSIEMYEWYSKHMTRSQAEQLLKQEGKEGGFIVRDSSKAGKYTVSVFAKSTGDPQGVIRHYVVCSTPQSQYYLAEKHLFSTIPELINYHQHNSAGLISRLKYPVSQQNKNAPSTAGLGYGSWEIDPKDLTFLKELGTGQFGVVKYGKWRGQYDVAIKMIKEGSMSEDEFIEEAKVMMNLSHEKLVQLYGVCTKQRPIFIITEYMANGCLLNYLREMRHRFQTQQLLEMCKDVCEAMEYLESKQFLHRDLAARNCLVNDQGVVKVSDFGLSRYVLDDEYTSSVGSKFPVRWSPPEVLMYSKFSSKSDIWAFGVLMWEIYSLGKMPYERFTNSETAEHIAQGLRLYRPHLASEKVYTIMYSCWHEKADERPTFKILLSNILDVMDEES

pIC50 | SMILES
9.22 | CC(C)(C)N1CCN(C(C)(C)C=C(C#N)C(=O)N2CCC[C@@H](n3nc(-c4ccc(Oc5ccccc5)cc4F)c4c(N)ncnc43)C2)CC1
7.79 | CC(C)(C=C(C#N)C(=O)N1CCC[C@H]1Cn1nc(-c2ccc(Oc3ccccc3)cc2F)c2c(N)ncnc21)NC1COC1

SMILES | pIC50
CC(C)(C=C(C#N)C(=O)N1CCC[C@H]1Cn1nc(-c2ccc(Oc3ccccc3)cc2F)c2c(N)ncnc21)N(C1CC1)C1COC1 | 7.59
